Earlier results, collected in patent US10842883B2, “Aqueous oral solutions of steroid hormones and hydroxypropyl-β-cyclodextrin with optimised bioavailability” (ALTERGON S.A., priority 2012, dated 2020).

Settings: Gould et al., Food Chem. Toxicol. 43 (2005)

CC(O)COC[C@H]1O[C@@H]2O[C@H]3[C@H](O)[C@@H](O)[C@@H](O[C@H]4[C@H](O)[C@@H](O)[C@@H](O[C@H]5[C@H](O)[C@@H](O)[C@@H](O[C@H]6[C@H](O)[C@@H](O)[C@@H](O[C@H]7[C@H](O)[C@@H](O)[C@@H](O[C@H]8[C@H](O)[C@@H](O)[C@@H](O[C@H]1[C@H](O)[C@H]2O)O[C@@H]8COCC(C)O)O[C@@H]7COCC(C)O)O[C@@H]6COCC(C)O)O[C@@H]5COCC(C)O)O[C@@H]4COCC(C)O)O[C@@H]3COCC(C)O (stereo partly drawn) [hydroxypropyl-β-cyclodextrin]
fraction absorbed after oral administration: about 5%
